# Assay results reported in US20120065198A2, “Detection and Treatment of Schizophrenia” (Tokai University Educational System, priority 2007, published 2012).
# System: pentosidine formation
# Experiment: Inhibitory activity on pentosidine formation, samples incubated with BSA and arabinose
# Format: biochemical
# Conditions: incubated with BSA and arabinose instead of patient plasma; for Pentosidine Formation Ratio (%) at 5 Concentration: Table 13
# Method: Plasma was collected from hemodialysis patients prior to dialysis with the patients' consent, and the plasma was filtered and sterilized. To the plasma (450 μL) was added solutions of TM-2002 in dimethylsulfoxide (50 μL) (final concentrations: 0.8, 2.0, and 5.0 mM), and the mixtures were incubated for 1 week at 37° C. The levels of the pentosidine formation were measured.
# Pentosidine was measured as follows. To each sample (50 μL) after incubation was added an equal volume of 10% trichloroacetic acid, and the mixture was subsequently centrifuged at 5,000 g for 5 minutes. After the supernatant was removed, the pellet was washed with 5% trichloroacetic acid (300 μL). The pellet was dried under reduced pressure, and subsequently hydrolyzed in a 6N HCl solution (100 μL) under a nitrogen atmosphere for 16 hours at 110° C. To the acid hydrolysate was then added 5N NaOH (100 μL) and 0.5 M phosphate buffer (pH 7.4) (200 μL); the mixture was subsequently filtered through a micropore filter with 0.5 μm pores and diluted with PBS. The concentration of the released pentosidine was measured by reverse-phase HPLC using a fluorescence detector (RF-10A, Shimadzu Corporation) (Miyata, T. et al.; Proc. Natl. Acad. Sci. USA, Vol. 93, p. 2353-2358, 1996). The effluent was monitored at the excitation/emission wavelength of 335/385 nm. Synthetic pentosidine was used as the reference material. The detection limit of pentosidine was 0.1 pmol/mg protein.
# (2) Other edaravone analogues (Compounds (1) or (2)) were investigated for their inhibitory activities on pentosidine formation in the same manner as in Section (1) above, except that the samples were incubated with BSA and arabinose instead of the patient plasma. In the tables, “-” means that the test was not conducted.
SMILES,Pentosidine Formation Ratio (%) at 5 mM Drug Concentration [%],Pentosidine Formation Ratio (%) at 5 Concentration [%]
"CC1=NN(c2ccccc2)C(=O)C1(N1CCOCC1)N1CCOCC1 [compound 26, 5-methyl-4,4-dimorpholine-4-yl-2-phenyl-2,4-dihydro-pyrazol-3-one]",50.68,
"O=C(NC1=NN(c2ccccc2)C(=O)C1(O)S(=O)(=O)[O-])c1ccccc1.[Na+] (stereo not drawn) [compound 27, Sodium 3-benzoylamino-4-hydroxy-5-oxo-1-phenyl-4,5-dihydro-1H-pyrazole-4-sulfonate]",2.83,
CC1=NN(c2ccccc2)C(=O)C12Sc1ccccc1C2=O (stereo not drawn) [compound 28],22.83,
"CC1=NN(c2ccccc2)C(=O)C12C(c1ccccc1)C21C(=O)N(c2ccccc2)N=C1C (stereo not drawn) [compound 30, 4,10-dimethyl-2,8,11-triphenyl-2,3,8,9-tetraza-dispiro[4.0.4.1]undeca-3,9-diene-1,7-dione]",62.43,
CC1=NN(c2ccccc2Cl)C(=O)/C1=C/c1ccc(O)c(OCO)c1 [compound 31],15.57,
"CC1=NN(c2ccccc2Cl)C(=O)/C1=C/c1ccc(N(C)C)cc1 [compound 32, 2-(2-chloro-phenyl)-4-(4-dimethylamino-benzylidene)-5-methyl-2,4-dihydro-pyrazol-3-one]",8.7,
CC1=NN(c2cccc(C(F)(F)F)c2)C(=O)/C1=C/C=C/c1ccccc1 [compound 33],80.08,
"CC1=NN(c2cccc(F)c2)C(=O)/C1=C\c1ccc(N(C)C)cc1 [compound 35, 4-(4-dimethylamino-benzylidene)-2-(3-fluoro-phenyl)-5-methyl-2,4-dihydro-pyrazol-3-one]",76.31,
"CC1=NN(c2cccc(C(=O)O)c2)C(=O)/C1=C\c1ccc(N2CCC(Cl)=N2)cc1 [compound 36, 3-{4-[4-(3-chloro-4,5-dihydro-pyrazol-1-yl)-benzylidene]-3-methyl-5-oxo-4,5-dihydro-pyrazol-1-yl}-benzoic acid]",26.37,
O=C(O)c1cccc(N2N=C(c3ccccc3)/C(=C/c3ccccc3O)C2=O)c1 [compound 37],0.02,
"CC1=NN(c2cccc(Cl)c2)C(=O)/C1=C/c1cc2ccccc2[nH]c1=O [compound 38, 3-[1-(3-chloro-phenyl)-3-methyl-5-oxo-1,5-dihydro-pyrazol-4-ylidenemethyl]-1H-quinolin-2-one]",84.95,
COC(=O)c1cccc(-c2ccc(/C=C3\C(=O)N(c4ccc(S(C)(=O)=O)cc4)N=C3C)o2)c1 [compound 39],16.87,
"COC(=O)c1ccc(N2N=C(C)/C(=C/c3ccc4c(c3)OCO4)C2=O)cc1 [compound 40, 4-(4-benzo[1,3]dioxol-5-ylmethylene-3-methyl-5-oxo-4,5-dihydro-pyrazol-1-yl)-benzoic acid methyl ester]",32.37,
"COC(=O)c1ccc(N2N=C(C)/C(=C/c3ccc(-c4ccc(S(N)(=O)=O)cc4)o3)C2=O)cc1 [compound 41, 4-{3-methyl-5-oxo-4-[5-(4-sulfamoyl-phenyl)-furan-2-ylmethylene]-4,5-dihydro-pyrazol-1-yl}-benzoic acid methyl ester]",37.81,
"CC1=NN(c2ccc(Cl)cc2)C(=O)/C1=C/c1ccc(O)cc1O [compound 42, 2-(4-chloro-phenyl)-4-(2,4-dihydroxy-benzylidene)-5-methyl-2,4-dihydro-pyrazol-3-one]",68.32,
"CC1=NN(c2ccc(Cl)cc2)C(=O)/C1=C/c1cccc(O)c1 [compound 43, 2-(4-chloro-phenyl)-4-(3-hydroxy-benzylidene)-5-methyl-2,4-dihydropyrazol-3-one]",3.00,
"CC1=NN(c2ccc(C)cc2)C(=O)/C1=C/c1ccc(O)c(O)c1 [compound 44, 4-(3,4-dihydroxy-benzylidene)-5-methyl-2-p-toluyl-2,4-dihydro-pyrazol-3-one]",66.19,
"CC(=O)c1ccc(N2N=C(C)/C(=C3\C(=O)Nc4ccccc43)C2=O)cc1 [compound 45, 3-[1-(4-acetyl-phenyl)-3-methyl-5-oxo-1,5-dihydro-pyrazol-4-ylidene]-1,3-dihydro-indol-2-one]",19.22,

SMILES,Pentosidine Formation Ratio (%) at 5 mM Drug Concentration [%],Pentosidine Formation Ratio (%) at 5 Concentration [%]
"CC1=NN(c2ccc(F)cc2)C(=O)/C1=C\c1c(C)nn(-c2ccccc2C)c1O [compound 46, 2-(4-fluoro-phenyl)-4-(5-hydroxy-3-methyl-1-o-toluyl-1H-pyrazol-4-ylmethylene)-5-methyl-2,4-dihydro-pyrazol-3-one]",15.69,
"COc1cc(/C=C2\C(=O)N(c3ccc(Cl)cc3)N=C2C(F)(F)F)ccc1O [compound 47, 2-(4-chloro-phenyl)-4-(4-hydroxy-3-methoxy-benzylidene)-5-trifluoromethyl-2,4-dihydro-pyrazol-3-one]",28.86,
"CCc1ccc(N2N=C(C)/C(=C\c3ccc(O)cc3)C2=O)cc1 [compound 48, 2-(4-ethyl-phenyl)-4-(4-hydroxy-benzylidene)-5-methyl-2,4-dihydro-pyrazol-3-one]",0.02,
"CC1=NN(c2ccc(S(N)(=O)=O)cc2)C(=O)/C1=C/c1ccc(O)cc1 [compound 49, 4-[4-(4-hydroxy-benzylidene)-3-methyl-5-oxo-4,5-dihydro-pyrazol-1-yl]-benzenesulfonamide]",7.09,
"CCOC(=O)c1ccc(N2N=C(C(F)(F)F)/C(=C/c3cccs3)C2=O)cc1 [compound 50, 4-(5-oxo-4-thiophen-2-ylmethylene-3-trifluoromethyl-4,5-dihydro-pyrazol-1-yl)-benzoic acid ethyl ester]",63.17,
"CN(C)c1ccc(/C=C2\C(=O)N(c3ccc(S(N)(=O)=O)cc3)N=C2C(F)(F)F)cc1 [compound 51, 4-[4-(4-dimethylamino-benzyliden)-5-oxo-3-trifluoromethyl-4,5-dihydro-pyrazol-1-yl]-benzenesulfonamide]",41.68,
"O=C1/C(=C\c2ccc(O)cc2)C(C(F)(F)F)=NN1c1ccccc1 [compound 53, 4-(4-hydroxy-benzylidene)-2-phenyl-5-trifluoromethyl-2,4-dihydro-pyrazol-3-one]",66.76,
"CC1=NN(c2ccc(C)c(C)c2)C(=O)/C1=C\c1ccc(O)cc1O [compound 54, 4-(2,4-dihydroxy-benzylidene)-2-(3,4-dimethyl-phenyl)-5-methyl-2,4-dihydro-pyrazol-3-one]",73.48,
CC1=NN(c2ccc3ccccc3c2)C(=O)/C1=C/c1ccc(O)cc1 [compound 58],0.07,
"COc1ccc(/C=C2/C(=O)N(c3ccccc3)N=C2C)c(OC)c1O [compound 59, 4-(3-hydroxy-2,4-dimethoxy-benzylidene)-5-methyl-2-phenyl-2,4-dihydro-pyrazol-3-one]",5.3,
COc1cc(/C=C2/C(=O)N(c3ccc(C(=O)OC(C)C)cc3)N=C2C)ccc1O [compound 60],9.02,
"COc1cc(/C=C2/C(=O)N(c3ccc(Cl)c(C(=O)O)c3)N=C2C)c(Cl)cc1O [compound 61, 2-chloro-5-[4-(2-chloro-4-hydroxy-5-methoxy-benzylidene)-3-methyl-5-oxo-4,5-dihydro-pyrazol-1-yl]-benzoic acid]",46.52,
"CC1=NN(c2ccccc2)C(=O)/C1=C/N(C)C [compound 65, 4-dimethylaminomethylene-5-methyl-2-phenyl-2,4-dihydro-pyrazol-3-one]",62.43,
"CC1=NN(c2ccccc2)C(=O)/C1=C/c1c(C)nn(-c2ccccc2)c1O [compound 66, 4-(5-hydroxy-3-methyl-1-phenyl-1H-pyrazol-4-ylmethylene)-5-methyl-2-phenyl-2,4-dihydro-pyrazol-3-one]",15.17,
CC1=NN(c2ccccc2)C(=O)/C1=C/c1ccc(Cl)cc1 [compound 67],9.09,
Cc1ncc2c(c1O)C(c1c(C)nn(-c3ccccc3)c1O)OC2 (stereo not drawn) [compound 68],2.82,
"Cc1ncc2c(c1O)C(c1c(C)nn(-c3ccccc3)c1O)OC2.Cl (stereo not drawn) [compound 69, 1-(5-hydroxy-3-methyl-1-phenyl-1H-pyrazol-4-yl)-6-methyl-1,3-dihydro-furo [3,4-c]pyridin-7-ol]",,2.94
"CC1=NN(c2ccccc2)C(=O)/C1=C/c1ccc(O)cc1 [compound 70, 4-(4-hydroxy-benzylidene)-5-methyl-2-phenyl-2,4-dihydro-pyrazol-3-one]",,0.04
